Data from patent US10961163B2, “Compositions and methods useful for enhancing the microbial conversion of nitrate into ammonium” (The Regents of the University of California, priority 2016, dated 2021).
Read-outs that look alike come from different tables or passages of the source.

Tested on: microbial enrichment cultures
Assay: Inhibitory potency (IC50) of inorganic compounds against growth and ammonium production, microbial enrichment with yeast extract
Format: cell-based
[1] = microbial enrichment with complex carbon source (yeast extract), serial dilutions of inorganic compound, higher ratio favors ammonium production

| Molecule | NH4^+ IC50/growth IC50 ratio | NH4^+ IC50/growth IC50 ratio [1] |
| --- | --- | --- |
| [Na+].[O-][Cl+2]([O-])[O-] [Sodium Chlorate] | 1.9090 |  |
| [Cl-].[Na+] [Sodium Chloride] | 21.9487 |  |
| [Cl-].[Cs+] [Cesium chloride] | 30.1708 |  |
| O=[As][O-].[Na+] [Sodium m-arsenite] | 3.9664 |  |
| O.O.O.O.O.O.O.O=[As]([O-])([O-])O.[Na+].[Na+] [Sodium arsenate dibasic heptahydrate] | 3.2618 |  |
| O=S(=O)([O-])[O-].[Na+].[Na+] [Sodium sulfate] | 1.0000 |  |
| Cl.NO [Hydroxylamine hydrochloride] | 0.3854 |  |
| [F-].[Na+] [sodium fluoride] | 1.6628 |  |
| Sodium Chlorite | 1.2683 |  |
| [O-][Cl+3]([O-])([O-])O [Sodium perchlorate monohydrate] | 5.2779 |  |
| Nickel (II) chloride hexahydrate | 53.6273 |  |
| O=C([O-])O.[Na+] [Sodium bicarbonate] | 0.3242 |  |
| [Ce+3].[Cl-].[Cl-].[Cl-] [Cerium(III) chloride] | 0.0189 |  |
| O=[Te](=O)([O-])[O-].[K+].[K+] [potassium tellurate] | 1.7673 |  |
| O.O=[Te]([O-])[O-].[K+].[K+] [Potassium tellurite hydrate] | 0.1044 |  |
| [Cl][Fe]([Cl])[Cl] [Ferric chloride] |  | 0.2642 |
| Cl.N [Ammonium chloride] | 1.0157 |  |
| O=[Se](=O)(O)O [Sodium selenate] | 10.0581 |  |
| Barium chloride dihydrate | 0.1756 |  |
| Calcium chloride dihydrate | 0.1455 |  |
| N.N.O.O=S(O)O [Ammonium sulfite monohydrate] | 2.0739 |  |
| O.O.O.O.O.O=S([O-])([O-])=S.[Na+].[Na+] [Sodium thiosulfate pentahydrate] | 0.5741 |  |
| OCl [Sodium hypochlorite] |  | 0.0048 |
| O=[PH](O)O [Sodium phosphite dibasic pentahydrate] | 1.3336 |  |

| Molecule | NH4^+ IC50/growth IC50 ratio | NH4^+ IC50/growth IC50 ratio [1] |
| --- | --- | --- |
| [Cl][Pb][Cl] [Lead(II)chloride] | 0.0174 |  |
| [Br-].[Na+] [sodium bromide] | 0.5766 |  |
| O.O=P([O-])(O)O.[Na+] [Sodium phosphate monobasic monohydrate] | 0.3418 |  |
| CC(=O)[O-].[Tl+] [Thallium(I) acetate] | 0.3751 |  |
| O=C(O)CN(CC(=O)O)CC(=O)O [Nitrilotriacetic acid] |  | 0.4756 |
| Sodium thiophosphate tribasic hydrate | 0.8963 |  |
| O=S(=O)([O-])CCBr.[Na+] [Sodium 2-bromoethanesulfonate] | 5.3024 |  |
| Sodium tungstate dihydrate | 1.8289 |  |
| [Na+].[O-][I+3]([O-])([O-])[O-] [Sodium periodate] | 7.8824 |  |
| CS(=O)(=O)[O-].[Na+] [Sodium methanesulfonate] | 0.4289 |  |
| CC(=O)c1ccc(O)cc1 [4-Hydroxyacetophenone] | 1.3700 |  |
| O=S([O-])[O-].[Na+].[Na+] [sodium sulfite] | 2.4699 |  |
| C[C@H](CCC(=O)[O-])[C@H]1CC[C@H]2[C@@H]3[C@H](O)C[C@@H]4C[C@H](O)CC[C@]4(C)[C@H]3C[C@H](O)[C@]12C.O.[Na+] [Sodium cholate hydrate] | 5.9537 |  |
| O.O.O.O.O.O.[Cl][Cr]([Cl])[Cl] [Chromium(III) Chloride Hexahydrate] | 0.0003 |  |
| [Cl][Pd][Cl] [Palladium(II) chloride] |  | 0.4739 |
| [I-].[Na+] [sodium iodide] | 0.2617 |  |
| copper (II) chloride dihydrate |  | 0.1069 |
| [Cl-].[Li+] [Lithium chloride] | 3.4054 |  |
| O.O.O.O.O.O.[Cl-].[Cl-].[Co+2] [Cobalt chloride hexahydrate] | 22.1846 |  |
| [Cl-].[K+] [Potassium Chloride] | 0.4776 |  |
| Sodium metavanadate | 13.0898 |  |
| Aluminum chloride hydrate |  | 0.0961 |
| [Cl-].[Cl-].[Sr+2] [Strontium chloride] | 3.3568 |  |
